# Measurements: a melting point compilation (Tetko et al.; mined from patent text by program, amines drawn as free bases though some values may be those of a salt)
row,melting point [°C],SMILES
1,82 to 85,CCOC(=O)C1=C(C)NC(C)=C(C(=O)OCCN2CCN(C(c3ccc(C)cc3)c3ccc(C)cc3)CC2)C1c1cccc([N+](=O)[O-])c1 (stereo not given)
2,215,CC(=O)Nc1ccc(C(=O)c2ccncc2)cc1
3,42 to 43,CCCCCCCCCCCCCCCCOCC(CO)OCCCCCCCCCCCCCC (stereo not given)
4,203 to 204,CN(CCOc1ccc(Cl)c2c1CC(=O)N2)c1cccs1
5,164,COC(=O)c1cc(C(=O)c2c(C)c(OC)c3c(OCC(=O)O)cccn23)ccc1N
6,76,COC(=O)C(C)(C)CCCN1CCN(C(=O)C=Cc2ccccc2)CC1
7,105 to 107,CCn1nc(Cl)c(CS(=O)(=O)C2=NOC(C)(C)C2)c1Cl
8,114 to 116,CCc1ccc2c3c(ccc(C=O)c13)-c1ccccc1-2
9,51,CC1(C)CCSc2ccc(-c3cc(-c4ccc(C(=O)O)cc4)ccc3-c3ccccc3)cc21
10,147,O=Cc1[nH]cc2c1OCCO2
11,109 to 110,COC=C(C(=O)OC)c1ccccc1Oc1ccn(-c2ccc(Cl)cc2)n1
12,118 to 120,C[C@@H]1C[C@@H]([C@H](CC2CCCCC2)NC(=O)[C@H](Cc2cscn2)NC(=O)OC(C)(C)C)OC1=O
13,203 to 205,O=C(O)c1cnc2ccc(Cc3ccccc3)cc2c1
14,300,CC1=CC(=O)C(=NNc2ccc(C#N)cc2)C(=O)O1
15,206 to 210,COC(=O)c1ccc(C=CC(=O)C=Cc2ccc(C(=O)OC)cc2)cc1
16,70 to 72,O=C(NCCSCc1cccc(F)c1)c1c(Cl)cccc1Cl
17,249,"Cc1nn(CC(O)c2ccc(Cl)cc2)c(=O)n1-c1ccc(N2CCN(c3ccc(O)cc3)CC2)cc1 (single isomer, unassigned; (+))"
18,156 to 158,CC(Oc1ncn(-c2cccc(F)c2)n1)C(N)=O (stereo not given)
19,< 80,CC(C(=O)Nc1ccc(-n2nc(C(F)(F)F)cc2C(F)(F)F)cc1)c1ccc(C(=O)c2cccs2)cc1 (stereo not given)
20,97 to 99,CC(C)(CF)C(O)(COc1ccc(F)cc1)Cn1cncn1 (stereo not given)
21,53 to 58,O=C(C1CCCCO1)N1CCNCC1 (stereo not given)
22,45 to 47,COc1c(F)c(N)cc(F)c1F
23,171 to 172,NC(=O)Cc1ccc2c(c1)C(=O)Cc1ccccc1S2
24,165 to 166,CC(C)(C)c1cc(CCc2ccccc2NC(=O)NCC(C)(C)c2cccc(F)c2)cc(C(C)(C)C)c1O

row,melting point [°C],SMILES
1,123 to 125,CC1c2cccc3c2N(CC3)c2ccccc2N1C(=O)CBr (stereo not given)
2,123 to 125,CCOC(=O)Cc1sc(Sc2cccc(C(=O)O)n2)nc1C
3,87 to 89,COc1ccc2[nH]c(S(=O)Cc3ncnc(N4CCCCC4)c3C)nc2c1 (stereo not given)
4,142 to 144,O=C(C=Cc1ccc(C(F)(F)F)cc1)N1CCOCC1
5,241,CCC(=O)OCC(=O)C1(OC(=O)c2ccccc2)CCC2C3CC(C)C4=CC(=O)C=CC4(C)C3C(O)CC21C (stereo not given)
6,221 to 222,O=C(O)c1c(-c2cc(Cl)cc(Cl)c2)c2ccccc2n1Cc1cc2c(cc1Cl)OCO2
7,170 to 172,CCc1cc(C(N)=O)nn1C
8,62 to 63.5,Oc1cc2cc(C3CCCC3)sc2c(Cl)c1Cl
9,87 to 88,CCOC(=O)CCCCc1cccc(-c2nc(=O)c3ccccc3s2)n1
10,> 300,O=S(=O)(O)c1cncc(Br)c1
11,65 to 66,CCOC(=O)c1ccc(N(Cc2ccc(Cl)cc2)C(C)=O)cc1
12,74.5 to 75,C=CCOc1ccc(C(=O)C=Cc2ccc(OC)c(OC)c2)cc1
13,59 to 60,Cc1cccc(-c2ccc([N+](=O)[O-])cc2)c1
14,188 to 189,CN1CCc2cc(Cl)c(O)cc2[C@H](c2ccccc2)C1
15,161 to 162,CCOc1cc(-n2c(=O)cc(C(F)(F)F)[nH]c2=O)c(F)cc1Br
16,160,OC1CSC(Oc2cccc3ccoc23)C(O)C1O (stereo not given)
17,244 to 245,Cc1n[nH]c(C)c1C(=O)Nc1ccccc1
18,160 to 162,CC(NC(Nc1ccc2c(c1)OCO2)=C(C#N)S(=O)(=O)c1ccc(Cl)cc1)C(C)(C)C (stereo not given)
19,202 to 204,CCOC(=O)C(=O)C1Cc2ccc(NS(=O)(=O)c3ccc(C)cc3)cc2C1=O (stereo not given)
20,130 to 134,CC(C)C[C@H](NC(=O)[C@@H]1CCCN1C(=O)[C@@H](N)CSCc1ccccc1)C(=O)NCC(N)=O
21,160 to 161,COC(=O)C(C)(C)c1ccc(Cl)c([N+](=O)[O-])c1
22,137 to 138,CCCC(CCC)NC(=O)c1ccc2oc(OC)nc2c1
23,45 to 46,CN(C)CCC(O)c1ccccc1 (stereo not given)
24,101 to 103,CCOC(=O)C1=Cc2cc(C(C)=O)ccc2OC1C(F)(F)F (stereo not given)

row,melting point [°C],SMILES
1,68 to 70,N#Cc1ccc(OCc2ccc3c(c2)OCO3)cc1OC(C(=O)O)c1ccccc1 (racemic)
2,49 to 50,CCCCCCCCCCCCCCCCCCN(CCCCCCCCCCCCCCCCCC)Cc1ccc(CN(CCO)CCO)cc1
3,158 to 160,Nc1cccc(C=Cc2ccc3ccccc3n2)c1
4,230 to 231,O=C(NCc1cccc(O)c1)c1[nH]c2ccc(Cl)cc2c1S(=O)(=O)c1cccc(Cl)c1
5,160 to 162,"COc1ccc(O)c(C2Sc3ccccc3N(C)C2=O)c1 (single isomer, unassigned; (-))"
6,73 to 75,Cc1cc(C2=C(C=CC3CC(O)CC(=O)O3)C(C)(C)CC(OC(=O)Nc3ccccc3)C2)ccc1F (stereo not given)
7,181 to 182,CCOC(=O)Nc1ccc2c(c1)CCC2=O
8,259 to 261,O=C1Cc2c(ccc3ccccc23)C(c2ccccc2F)N1 (stereo not given)
9,190 to 192,Cc1sc2ccc(Cl)cc2c1C1=NCCN1
10,123 to 124,Clc1ccc2nc(CN3CCN(c4ccccc4Cl)CC3)cn2c1
11,105 to 107,CC#CC(C)(C)NC(=O)C(CC)Oc1ccc2ncc(Cl)cc2c1 (stereo not given)
12,183 to 184,CC1(C)COc2ccc(C[C@H]3NC(=O)O[C@H]3c3cccc(Cl)c3)cc21 (racemic)
13,140 to 142,CCOC(=O)Cc1ccc(NC(=O)C(COc2ccccc2Cl)NS(=O)(=O)c2ccc(I)cc2)cc1 (racemic)
14,105 to 107,CCN(CC)CCNC(=O)c1ccc2cc(I)ccc2c1
15,124 to 125,Oc1ccc(-c2nn(C3CCC3)c3c(C(F)(F)F)cccc23)c(O)c1
16,132 to 134,O=C1N(CCCCN2CCN(c3n[nH]c4cc(F)ccc34)CC2)CSC12CCCC2
17,148 to 150,CCOC(=O)c1ccc(NC(=O)c2ccc3c(c2)SCCC3(C)C)cc1
18,169,COc1cc(-c2nc3ccccc3n2Cc2ccc(Cl)cc2)cc(OC)c1OC
19,255 to 257,CCN(CC)C(=O)c1c(C(=O)NN=Cc2ccc(Cl)cc2)[nH]c2ccccc12
20,258 to 260,CC(=O)Nc1cnn2c(C)nc3ccccc3c12
21,171 to 172,CN(C)c1snc(OCC#CI)c1C#N
22,50 to 54,CC1(C)C=C(CC(=O)O)C(C)(C)CC1
23,94 to 96,C=CCc1cc2c(c(CC=C)c1O)N(CC=C(C)C)C(=O)CC2
24,172,C#CCN(c1ccc(C(=O)NC(CCC(=O)NC(CCC(=O)O)C(=O)O)C(=O)O)cc1)C1CCc2cc3nc(CO)[nH]c(=O)c3cc21 (stereo not given)

row,melting point [°C],SMILES
1,158 to 159,CC1(C)CON(Cc2ccc(N3C(=O)c4ccccc4C3=O)cc2Br)C1=O
2,166 to 167,CC(=O)Nc1cc(CN2CCCCC2)c(O)c2c1CCCC2
3,61.5 to 63,Fc1c(Br)ccc2c1OC(c1ccccc1)(c1ccccc1)O2
4,201 to 203,O=C(NCC(=O)N1c2ccccc2N(Cc2ccccc2)C(=O)[C@H]2CCC[C@H]21)c1ccccc1 (relative stereo)
5,138 to 140,CCOC(=O)c1cnc2[nH]c(-c3cc(OCc4ccccc4)ccc3OC(C)C)nc2c1
6,125 to 127,C[Si](C)(C)OC1(c2ccccc2F)C(=O)Nc2ccc(Cl)cc21 (stereo not given)
7,188 to 191,Cc1c(SCCCCl)ccnc1CSc1nc2cc(F)ccc2[nH]1
8,201 to 203,COc1sc(-c2csc(C(N)=O)n2)c(Cl)c1C
9,248,CC(C)(C)OC(=O)[C@H]1C[C@H](C(=O)O)[C@@H](c2ccccc2)N1C(=O)CNC(=O)Nc1ccc(Cl)cc1 (racemic)
10,76 to 77,CCCc1ncc2cc(Cl)nc(OC)n12
11,214 to 217,Cc1cc2c(-c3ccccc3F)c(C(=O)O)oc(=O)c2cc1C
12,174 to 176,CC(=O)SC[C@H](NC(=O)C(C)C)C(=O)NCCSC(=O)c1ccccc1
13,95 to 97,COC(=O)c1cc(Cl)sc1S(=O)(=O)Cl
14,175 to 176,Cc1cc(C)cc(Nc2ncc(-c3ccccc3)s2)c1
15,98 to 101,CC(C)(C)OC(=O)N1CC=C(c2nc3c(Cl)cccc3s2)CC1
16,72 to 75,N#Cc1cc(/C=C/C(c2cc(Cl)c(Cl)c(Cl)c2)C(F)(F)F)ccc1-n1cnc(N)n1 (stereo not given)
17,76 to 78,CNC(=S)N1CC=C(C(C)(C)C)CC1
18,277 to 278,Cc1cc2c3c(cc(C)c2[nH]c1=O)CC(CBr)O3 (stereo not given)
19,211 to 217,COc1ccccc1NC(=O)Nc1nc(Oc2ccc3ccccc3c2)nc(N(CCC(=O)O)Cc2ccc(F)cc2)n1
20,177,O=C(O)[C@H]1O[C@H](c2ccccc2Cl)c2cc(Cl)ccc2N(Cc2ccccc2)C1=O (relative stereo)
21,175 to 176,OCC1Cc2c([nH]c3ccccc23)CN1C(=S)SCc1ccc(Cl)cc1 (stereo not given)

row,SMILES,melting point [°C]
1,O=C1Nc2ccc(Br)cc2C(c2ccccc2F)=NC1O (stereo not given),196 to 198
2,CCCc1c(C(=O)N(C)C)c2ccc(C(N)=O)cc2n1Cc1ccccc1Cl,213 to 214
3,CCCn1c(I)c2c3c(cccc31)C1CC(NC(=O)N(CC)CC)CN(C)C1C2 (stereo not given),114 to 117
4,Cc1cc(C)c(C(=O)P(=O)(c2ccccc2)c2ccccc2)c(C)c1Cl,125 to 126
5,CC1N=C(c2cccnc2)NC1=O (stereo not given),238 to 241
6,NC1CC(c2c[nH]c3ccc(CC4COC(=O)N4)cc23)C1 (stereo not given),95 to 100
7,CN1CC(C(=O)COC(=O)c2ccncc2)CC2c3cccc4[nH]cc(c34)CC21 (stereo not given),158 to 161
